Results as given in paper PMC6112376, “Comprehensive Analyses and Prioritization of Tox21 10K Chemicals Affecting Mitochondrial Function by in-Depth Mechanistic Studies” (Environmental Health Perspectives, 2018).
Read-outs that look alike come from different tables or passages of the source.

Experiments:
HepG2 cells [1] = details: for IC50: read-out: MMP assays IC50 (µM) HepG2
HepG2 cells [2] = details: cited from earlier work; for IC50: read-out: MMP assays IC50 (µM) qHTS-HepG2
rat primary hepatocytes = test: MMP assay in rat primary hepatocytes; details: for IC50: read-out: MMP assays IC50 (µM) Rat Hepatocytes
[3] = HepG2 cells, single number from one experiment
[4] = rat hepatocytes, mean ± SD of three experiments

Structure (SMILES)	MMP assays efficacy (%) HepG2 (HepG2 cells [1]; [3])	IC50 (HepG2 cells [1]; [3]) [µM]	MMP assays efficacy (%) qHTS-HepG2 (HepG2 cells [2])	IC50 (HepG2 cells [2]) [µM]	MMP assays efficacy (%) Rat Hepatocytes (rat primary hepatocytes; [4])	IC50 (rat primary hepatocytes; [4]) [µM]	MMP assays efficacy (%) HepG2 (HepG2 cells [1])	IC50 (HepG2 cells [1]) [µM]	IC50 (rat primary hepatocytes) [µM]	MMP assays IC50 (µM) HepG2 (HepG2 cells [1]; [3])	MMP assays IC50 (µM) qHTS-HepG2 (HepG2 cells [2])	MMP assays IC50 (µM) Rat Hepatocytes (rat primary hepatocytes; [4])	MMP assays IC50 (µM) HepG2 (HepG2 cells [1])	MMP assays IC50 (µM) Rat Hepatocytes (rat primary hepatocytes)	IC50 (rat primary hepatocytes; Rattus norvegicus, Hepatocyte) [µM]
Nc1nc(-c2ccc([N+](=O)[O-])cc2)cs1 [2-Amino-4-(p-nitrophenyl)thiazole]	-54%	8.91	-59±9%	3.9 ± 1.78	-53±16%	20.6 ± 21.1	–	–	–	–	–	–	–	–	–
CCCCCCCCCCCC[n+]1ccc2ccccc2c1.Cc1ccc(S(=O)(=O)[O-])cc1 [2-Dodecylisoquinolinium tosylate]	-110%	4.35	-83±5%	3.53 ± 0.5	-95±7%	4.94 ± 2.78	–	–	–	–	–	–	–	–	–
O=CC=C(c1ccccc1)c1ccccc1 [2-Propenal,3,3-diphenyl-]	-40%	56.2	-87±29%	41.2 ± 19.3	-78±36%	17.1 ± 23.9	–	–	–	–	–	–	–	–	–
O=C(O)Cc1cc(I)c(Oc2cc(I)c(O)c(I)c2)c(I)c1 [3,3',5,5'-Tetraiodothyroacetic acid]	-87%	39	-87±2%	45.8 ± 2.99	-110±24%	26.1 ± 2.13	–	–	–	–	–	–	–	–	–
CC(C)(c1cc(Br)c(O)c(Br)c1)c1cc(Br)c(O)c(Br)c1 [3,3φ,5,5φ-Tetrabromobisphenol A]	-98%	17.8	-123±2%	13.2 ± 12.2	-76±30%	36.9 ± 12.6	–	–	–	–	–	–	–	–	–
CCn1c2ccccc2c2cc(N)ccc21.Cl [3-Amino-9-ethylcarbazole hydrochloride]	-38%	14.1	-93±11%	35.4 ± 24.5	-53±23%	56.2	–	–	–	–	–	–	–	–	–
Nc1ccc(NC(=O)c2ccc(N)cc2)cc1 [4,4'-Diaminobenzanilide]	-93%	7.08	-100±8%	3.72 ± 2.85	-86±15%	33.5 ± 2.73	–	–	–	–	–	–	–	–	–
O=C(Nc1ccc([N+](=O)[O-])cc1)Nc1ccc([N+](=O)[O-])cc1 [4,4'-Dinitrodiphenylurea]	–	–	-79±2%	0.46 ± 0.06	–	–	-90%	0.97	0.7 ± 0.46	–	–	–	–	–	–
CC(C)(C)c1cc(Cc2cc(C(C)(C)C)c(O)c(C(C)(C)C)c2)cc(C(C)(C)C)c1O [4,4'-Methylenebis(2,6-di-t-butylphenol)]	inactive	–	inactive	–	inactive	–	–	–	–	inactive	inactive	inactive	–	–	–
O=C(CC(=O)C(F)(F)F)c1ccccc1 [4,4,4-Trifluoro-1-phenyl-1,3-butanedione]	-85%	31.6	-103±7%	20.4 ± 6.17	inactive	–	–	–	–	–	–	inactive	–	–	–
CCCCCCCCOc1ccc(C(=O)O)cc1 [4-Octyloxybenzoic acid]	inactive	–	-100±24%	39.6 ± 31.3	-57±30%	48 ± 11.6	–	–	–	inactive	–	–	–	–	–
Oc1ccc2cc(SSc3ccc4cc(O)ccc4c3)ccc2c1 [6-Hydroxy-2-naphthyl disulfide]	-98%	28.2	-110±7%	33.7 ± 3.64	-68±46%	39.8	–	–	–	–	–	–	–	–	–
C=C1CC[C@H](O)C/C1=C/C=C1\CCC[C@]2(C)[C@@H]([C@H](C)CC[C@@H](O)C(C)(C)O)CC[C@@H]12 [24R,25-Dihydroxyvitamin D3]	-133%	15.5	-111±10%	13 ± 2.17	-46±4%	17.3	–	–	–	–	–	–	–	–	–
CCCCCCCC/C=C\CCCCCCCC(N)=O [(9Z)-Octadec-9-enamide]	inactive	–	-67±17%	41.6 ± 7.16	inactive	–	–	–	–	inactive	–	inactive	–	–	–
CCC(=C(CC)c1ccc(O)cc1)c1ccc(O)cc1 [(Z,E)-Diethylstilbestrol]	–	–	-98±10%	–	–	–	-104%	–	42.8 ± 10.3	–	–	–	–	–	–
Cc1cc(N)c2cc(NC(=O)Nc3ccc4nc(C)cc(N)c4c3)ccc2n1.Cl.Cl [Aminoquinuride dihydrochloride]	-90%	27.5	-99±7%	25 ± 4.09	inactive	–	–	–	–	–	–	–	–	–	–

Structure (SMILES)	MMP assays efficacy (%) HepG2 (HepG2 cells [1]; [3])	IC50 (HepG2 cells [1]; [3]) [µM]	MMP assays efficacy (%) qHTS-HepG2 (HepG2 cells [2])	IC50 (HepG2 cells [2]) [µM]	MMP assays efficacy (%) Rat Hepatocytes (rat primary hepatocytes; [4])	IC50 (rat primary hepatocytes; [4]) [µM]	MMP assays efficacy (%) HepG2 (HepG2 cells [1])	IC50 (HepG2 cells [1]) [µM]	IC50 (rat primary hepatocytes) [µM]	MMP assays IC50 (µM) HepG2 (HepG2 cells [1]; [3])	MMP assays IC50 (µM) qHTS-HepG2 (HepG2 cells [2])	MMP assays IC50 (µM) Rat Hepatocytes (rat primary hepatocytes; [4])	MMP assays IC50 (µM) HepG2 (HepG2 cells [1])	MMP assays IC50 (µM) Rat Hepatocytes (rat primary hepatocytes)	IC50 (rat primary hepatocytes; Rattus norvegicus, Hepatocyte) [µM]
CCCCC/C(C=O)=C/c1ccccc1 [Amyl cinnamal]	–	–	inactive	–	–	–	inactive	–	–	–	inactive	–	inactive	inactive	–
O=C1c2ccccc2Cc2ccccc21 [Anthrone]	inactive	–	-70±4%	21.8 ± 9.9	-68±22%	–	–	–	–	inactive	–	–	–	–	42.4 ± 12
COC(=O)C1=C(C)NC(C)=C(C(=O)OCC(C)=O)C1c1ccccc1[N+](=O)[O-] (stereo not shown) [Aranidipine]	inactive	–	-56±6%	12.8 ± 3.68	inactive	–	–	–	–	inactive	–	inactive	–	–	–
CC(C)(C)NCC(O)CSc1nc(-c2ccc(C(N)=O)s2)cs1.Cl (stereo not shown) [Arotinolol hydrochloride]	-88%	27.5	-64±8%	17 ± 3.45	inactive	–	–	–	–	–	–	inactive	–	–	–
CCN=C1C=CC(=C(c2ccc(N(CC)CC)cc2)c2ccc(N(CC)CC)cc2)c2ccccc21.Cl [Basic blue 7]	-78%	0.05	-87±17%	0.02 ± 0.03	-79±39%	1.53 ± 1.42	–	–	–	–	–	–	–	–	–
CCC(=O)OCC(=O)[C@@]1(OC(=O)CC)[C@@H](C)C[C@H]2[C@@H]3CCC4=CC(=O)C=C[C@]4(C)[C@@]3(Cl)[C@@H](O)C[C@@]21C [Beclazone]	-61%	21.8	-103±9%	23.7 ± 2.74	-89±79%	16.3 ± 20.6	–	–	–	–	–	–	–	–	–
CCCCCCCCCCCC[N+](C)(C)Cc1ccccc1.[Br-] [Benzyldodecyldimethylammonium bromide]	–	17.3	-97±11%	11.4 ± 4.34	-44±3%	18.4 ± 1.5	–	–	–	–	–	–	–	–	–
COc1cc(Nc2c(C#N)cnc3cc(OCCCN4CCN(C)CC4)c(OC)cc23)c(Cl)cc1Cl [Bosutinib;PF-5208763/SKI-606]	-57%	1.23	-97±4%	0.75 ± 0.48	-56±1%	16.6 ± 11.2	–	–	–	–	–	–	–	–	–
Cc1cc(C(=C2C=CC(=N)C=C2)c2ccc(N)cc2)ccc1N [C.I. Basic violet 14]	-96%	0.87	-87±10%	0.18 ± 0.16	-71±37%	6.84 ± 4.71	–	–	–	–	–	–	–	–	–
O=C1c2c(O)ccc(Nc3ccc(CCO)cc3)c2C(=O)c2c([N+](=O)[O-])ccc(O)c21 [C.I. Disperse blue 27]	-119%	25.1	-86±8%	2.34 ± 0.87	-72±24%	32.5 ± 10.4	–	–	–	–	–	–	–	–	–
CCC(=O)O[C@]1(C(=O)CCl)[C@@H](C)C[C@H]2[C@@H]3CCC4=CC(=O)C=C[C@]4(C)[C@@]3(F)[C@@H](O)C[C@@]21C [Clobetasol propionate]	inactive	–	-98±19%	24.6 ± 1.67	-39±3%	–	–	–	–	inactive	–	–	–	–	24.1 ± 9.54
C[C@H]1C[C@H]2[C@@H]3CCC4=CC(=O)C=C[C@]4(C)[C@@]3(F)[C@@H](O)C[C@]2(C)[C@@]1(O)C(=O)CCl [Clobetasol]	-87%	17.3	-91±13%	14.4 ± 3.67	-64±43%	19.8 ± 15.6	–	–	–	–	–	–	–	–	–
Nc1cc(Cl)c([N+](=O)[O-])cc1O [Compound 2-Amino-4-chloro-5-nitrophenol]	-107%	25.1	-104±19%	21.5 ± 2.48	-47±13%	31.3 ± 8.72	–	–	–	–	–	–	–	–	–
Nc1nc2ccc([N+](=O)[O-])cc2s1 [Compound 2-Amino-6-nitrobenzothiazole]	-89%	44.7	-70±17%	12.7 ± 10.5	-81±29%	22.7 ± 20.4	–	–	–	–	–	–	–	–	–
COc1ccc(C(=O)c2ccccc2)c(O)c1 [Compound 2-Hydroxy-4-methoxybenzophenone]	inactive	–	inactive	–	–	–	–	–	–	inactive	inactive	–	–	–	50.1 ± 18.9
